Earlier results in patent US20230233697A1, “CYTOTOXIC BENZODIAZEPINE DERIVATIVES” (priority 2014, published 2023).

Settings: Phase I clinical evaluation; cited from earlier work

For `C=C1C[C@H]2C=Nc3cc(OCCCOc4cc5c(cc4OC)C(=O)N4CC(=C)C[C@H]4C=N5)c(OC)cc3C(=O)N2C1` [SJG-136], the maximum tolerated dose is listed as 45 μg/m^2.
